Data from the supplement of paper PMC10307832.

What was measured:
Experiment in all cases: relative viability (nuclei count vs DMSO), 5 days (fraction); higher = more cells survive
[1] = tested on: COR-L23
Summary of the method: (§1)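 Values are medians from duplicate plates. Each reflects relative viability, defined as the nuclei count of treated wells over that of vehicle wells. Lung cancer cell lines in 1536-well plates were pin-tool dosed one day after seeding with one drug alone or with a fixed anchor-drug dose plus five library-drug doses (not always all listed) in √10 steps, then fixed, stained and imaged at 4× after 5 days.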

[2] = tested on: ChaGo-K-1
Summary of the method: as §1

[3] = tested on: EPLC-272H
Summary of the method: as §1

[4] = tested on: HCC-15
Summary of the method: as §1

[5] = tested on: HCC-366
Summary of the method: as §1

[6] = tested on: HCC-44
Summary of the method: as §1

[7] = tested on: HCC-827
Summary of the method: as §1

[8] = tested on: LCLC-103H
Summary of the method: as §1

[9] = tested on: NCI-H1355
Summary of the method: as §1

[10] = tested on: NCI-H1734
Summary of the method: as §1

[11] = tested on: NCI-H1793
Summary of the method: as §1

[12] = tested on: NCI-H1944
Summary of the method: as §1

[13] = tested on: NCI-H2009
Summary of the method: as §1

[14] = tested on: NCI-H2023
Summary of the method: as §1

[15] = tested on: NCI-H2085
Summary of the method: as §1

[16] = tested on: NCI-H2228
Summary of the method: as §1

[17] = tested on: NCI-H2347
Summary of the method: as §1

[18] = tested on: NCI-H2405
Summary of the method: as §1

[19] = tested on: NCI-H3122
Summary of the method: as §1

[20] = tested on: PC-14
Summary of the method: as §1

[21] = tested on: SW 1573
Summary of the method: as §1

Structure (SMILES): Cc1csc(=NC2CCCCC2)n1/N=C/c1ccc(O)c(O)c1O [MIM1] + CC(=O)Nc1cccc(-n2c(=O)n(C3CC3)c(=O)c3c(Nc4ccc(I)cc4F)n(C)c(=O)c(C)c32)c1 [Trametinib] (partner 0.02 µM)
- relative viability ([1]; first compound 0.2 µM): 0.509
- relative viability ([1]; first compound 0.6325 µM): 0.619
- relative viability ([1]; first compound 2 µM): 0.571
- relative viability ([1]; first compound 6.325 µM): 0.388
- relative viability ([1]; first compound 20 µM): 0.306
- relative viability ([2]; first compound 0.2 µM): 0.889
- relative viability ([2]; first compound 0.6325 µM): 0.913
- relative viability ([2]; first compound 2 µM): 0.876
- relative viability ([2]; first compound 6.325 µM): 0.607
- relative viability ([2]; first compound 20 µM): 0.193
- relative viability ([3]; first compound 0.2 µM): 0.322
- relative viability ([3]; first compound 0.6325 µM): 0.279
- relative viability ([3]; first compound 2 µM): 0.273
- relative viability ([3]; first compound 6.325 µM): 0.24
- relative viability ([3]; first compound 20 µM): 0.16
- relative viability ([4]; first compound 0.2 µM): 0.363
- relative viability ([4]; first compound 2 µM): 0.372
- relative viability ([4]; first compound 6.325 µM): 0.377
- relative viability ([4]; first compound 20 µM): 0.133
- relative viability ([5]; first compound 0.2 µM): 0.321
- relative viability ([5]; first compound 2 µM): 0.3
- relative viability ([5]; first compound 6.325 µM): 0.0405
- relative viability ([5]; first compound 20 µM): 0.0273
- relative viability ([6]; first compound 0.2 µM): 1.05
- relative viability ([6]; first compound 0.6325 µM): 1.07
- relative viability ([6]; first compound 2 µM): 1.06
- relative viability ([6]; first compound 6.325 µM): 1.13
- relative viability ([6]; first compound 20 µM): 0.304
- relative viability ([7]; first compound 0.2 µM): 0.501
- relative viability ([7]; first compound 0.6325 µM): 0.506
- relative viability ([7]; first compound 2 µM): 0.522
- relative viability ([7]; first compound 6.325 µM): 0.384
- relative viability ([7]; first compound 20 µM): 0.443
- relative viability ([8]; first compound 0.2 µM): 0.662
- relative viability ([8]; first compound 0.6325 µM): 0.687
- relative viability ([8]; first compound 2 µM): 0.694
- relative viability ([8]; first compound 6.325 µM): 0.669
- relative viability ([8]; first compound 20 µM): 0.394
- relative viability ([9]; first compound 0.2 µM): 0.419
- relative viability ([9]; first compound 0.6325 µM): 0.436
- relative viability ([9]; first compound 2 µM): 0.457
- relative viability ([9]; first compound 6.325 µM): 0.384
- relative viability ([9]; first compound 20 µM): 0.375
- relative viability ([10]; first compound 0.2 µM): 0.786
- relative viability ([10]; first compound 0.6325 µM): 0.676
- relative viability ([10]; first compound 2 µM): 0.607
- relative viability ([10]; first compound 6.325 µM): 0.583
- relative viability ([10]; first compound 20 µM): 0.183
- relative viability ([11]; first compound 0.2 µM): 0.397
- relative viability ([11]; first compound 2 µM): 0.409
- relative viability ([11]; first compound 6.325 µM): 0.411
- relative viability ([11]; first compound 20 µM): 0.408
- relative viability ([12]; first compound 0.2 µM): 0.386
- relative viability ([12]; first compound 0.6325 µM): 0.462
- relative viability ([12]; first compound 2 µM): 0.307
- relative viability ([12]; first compound 6.325 µM): 0.364
- relative viability ([12]; first compound 20 µM): 0.265
- relative viability ([13]; first compound 0.2 µM): 0.257
- relative viability ([13]; first compound 0.6325 µM): 0.261
- relative viability ([13]; first compound 2 µM): 0.27
- relative viability ([13]; first compound 6.325 µM): 0.208
- relative viability ([13]; first compound 20 µM): 0.329
- relative viability ([14]; first compound 0.2 µM): 0.505
- relative viability ([14]; first compound 0.6325 µM): 0.562
- relative viability ([14]; first compound 2 µM): 0.52
- relative viability ([14]; first compound 6.325 µM): 0.247
- relative viability ([14]; first compound 20 µM): 0.0881
- relative viability ([15]; first compound 0.2 µM): 0.619
- relative viability ([15]; first compound 0.6325 µM): 0.512
- relative viability ([15]; first compound 2 µM): 0.62
- relative viability ([15]; first compound 6.325 µM): 0.436
- relative viability ([15]; first compound 20 µM): 0.406
- relative viability ([16]; first compound 0.2 µM): 0.54
- relative viability ([16]; first compound 0.6325 µM): 0.642
- relative viability ([16]; first compound 2 µM): 0.506
- relative viability ([16]; first compound 6.325 µM): 0.307
- relative viability ([16]; first compound 20 µM): 0.13
- relative viability ([17]; first compound 0.2 µM): 0.309
- relative viability ([17]; first compound 0.6325 µM): 0.358
- relative viability ([17]; first compound 2 µM): 0.283
- relative viability ([17]; first compound 6.325 µM): 0.315
- relative viability ([17]; first compound 20 µM): 0.27
- relative viability ([18]; first compound 0.2 µM): 0.586
- relative viability ([18]; first compound 0.6325 µM): 0.75
- relative viability ([18]; first compound 2 µM): 0.656
- relative viability ([18]; first compound 6.325 µM): 0.603
- relative viability ([18]; first compound 20 µM): 0.685
- relative viability ([19]; first compound 0.2 µM): 0.239
- relative viability ([19]; first compound 0.6325 µM): 0.244
- relative viability ([19]; first compound 2 µM): 0.261
- relative viability ([19]; first compound 6.325 µM): 0.302
- relative viability ([19]; first compound 20 µM): 0.125
- relative viability ([20]; first compound 0.2 µM): 0.663
- relative viability ([20]; first compound 0.6325 µM): 0.882
- relative viability ([20]; first compound 2 µM): 0.479
- relative viability ([20]; first compound 6.325 µM): 0.621
- relative viability ([20]; first compound 20 µM): 0.17
- relative viability ([21]; first compound 0.2 µM): 0.647
- relative viability ([21]; first compound 0.6325 µM): 0.574
- relative viability ([21]; first compound 2 µM): 0.553
- relative viability ([21]; first compound 6.325 µM): 0.361
- relative viability ([21]; first compound 20 µM): 0.13
